According to ChEMBL document CHEMBL4261653, “PPARγ-sparing thiazolidinediones as insulin sensitizers. Design, synthesis and selection of compounds for clinical development” (Bioorg Med Chem, 2018):

Test: Oral bioavailability in rat
Assay type: ADME, organism-based
Details: in vivo

bioavailability | Structure (SMILES)
100% | COc1cccc(C(=O)COc2ccc(CC3SC(=O)NC3=O)cc2)c1 (configuration not stated)
73% | CCc1ccc(C(=O)COc2ccc(CC3SC(=O)NC3=O)cc2)nc1 (configuration not stated) [MITOGLITAZONE]
